In article PMC2862277 (The Journal of neuroscience : the official journal of the …, 2010):
Several values for one entry are separate records, joined by “and”; a condition that tells them apart may be missing. Equal values may be shown once. Read-outs that look alike come from different tables or passages of the source. Blank lines part the entries; values can stand above or below the compound they belong to.

Columns and labels:
NR1/NR2C [1] = target: T1, NR1/NR2C (Rattus norvegicus, UniProt P35439+Q00961); assay: Two electrode voltage clamp recording from Xenopus laevis oocytes; type: cell-based
T1 sequence (Q00961 20-1237, other chains not shown): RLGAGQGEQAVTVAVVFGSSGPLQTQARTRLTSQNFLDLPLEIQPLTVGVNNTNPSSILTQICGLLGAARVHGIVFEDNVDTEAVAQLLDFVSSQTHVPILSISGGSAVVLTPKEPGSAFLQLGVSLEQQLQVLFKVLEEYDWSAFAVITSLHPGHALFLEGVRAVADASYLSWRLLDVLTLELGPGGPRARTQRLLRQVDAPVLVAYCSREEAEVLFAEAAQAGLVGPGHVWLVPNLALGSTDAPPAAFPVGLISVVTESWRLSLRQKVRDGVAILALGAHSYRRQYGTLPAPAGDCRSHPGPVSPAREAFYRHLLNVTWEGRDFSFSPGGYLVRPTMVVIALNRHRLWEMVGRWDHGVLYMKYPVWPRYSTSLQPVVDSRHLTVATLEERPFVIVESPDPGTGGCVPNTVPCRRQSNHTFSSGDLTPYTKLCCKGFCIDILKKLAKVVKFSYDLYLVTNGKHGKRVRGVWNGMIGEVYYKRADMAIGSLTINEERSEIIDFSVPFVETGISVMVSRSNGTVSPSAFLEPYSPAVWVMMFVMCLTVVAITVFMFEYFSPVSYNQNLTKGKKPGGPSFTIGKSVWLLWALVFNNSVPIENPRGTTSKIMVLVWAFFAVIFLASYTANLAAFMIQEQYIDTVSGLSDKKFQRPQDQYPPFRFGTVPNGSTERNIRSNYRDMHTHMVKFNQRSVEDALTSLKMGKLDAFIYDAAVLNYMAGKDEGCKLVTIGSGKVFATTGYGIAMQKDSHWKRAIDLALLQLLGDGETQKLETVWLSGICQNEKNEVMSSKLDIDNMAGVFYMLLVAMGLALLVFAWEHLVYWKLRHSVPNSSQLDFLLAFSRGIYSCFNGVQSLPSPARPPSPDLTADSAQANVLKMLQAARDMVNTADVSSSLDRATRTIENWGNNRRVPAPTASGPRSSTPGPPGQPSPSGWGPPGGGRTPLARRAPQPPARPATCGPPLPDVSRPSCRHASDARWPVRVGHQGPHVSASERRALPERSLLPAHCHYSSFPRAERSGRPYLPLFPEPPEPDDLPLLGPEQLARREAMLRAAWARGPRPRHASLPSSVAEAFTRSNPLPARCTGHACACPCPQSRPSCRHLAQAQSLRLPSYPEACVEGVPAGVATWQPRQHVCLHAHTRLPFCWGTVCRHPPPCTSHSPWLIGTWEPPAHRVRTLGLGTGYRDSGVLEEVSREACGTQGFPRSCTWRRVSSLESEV

NR1/NR2C [2] = target: T1, NR1/NR2C; assay: Maximum interval likelihood fitting of Scheme 1 to single channel data; type: cell-based
NR1(Y692A)/NR2D = NR1(Y692A)/NR2D (Rattus norvegicus, UniProt P35439+Q62645, Y692A); assay: TEVC recording from Xenopus oocytes, mutant receptor; type: cell-based
NR1/NR2C [3] = target: T1, NR1/NR2C; type: cell-based
NR1(Y692A)/NR2C = NR1(Y692A)/NR2C (Rattus norvegicus, UniProt P35439+Q00961, Y692A); assay: TEVC recording from Xenopus oocytes, mutant receptor; type: cell-based
Chain of NR1(Y692A)/NR2C (Q00961 20-1237, other chains not shown): as above

NR1/NR2D(E791Q) = NR1/NR2D(E791Q) (Rattus norvegicus, UniProt P35439+Q62645, E814Q); assay: as above; type: cell-based
NR1/NR2C [4] = target: T1, NR1/NR2C; assay: Single-channel recording from outside-out patches containing one active channel; type: cell-based
NR1/NR2A(E798Q) = NR1/NR2A(E798Q) (Rattus norvegicus, UniProt P35439+Q00959, E789Q); assay: TEVC recording from Xenopus oocytes, mutant receptor; type: cell-based
NR1/NR2B(E790A) = NR1/NR2B(E790A) (Rattus norvegicus, UniProt P35439+Q00960, E790A); assay: as above; type: cell-based
NR1(Y692A)/NR2B = NR1(Y692A)/NR2B (Rattus norvegicus, UniProt P35439+Q00960, Y692A); assay: as above; type: cell-based
NR1(R755A)/NR2C = NR1(R755A)/NR2C (Rattus norvegicus, UniProt P35439+Q00961, R755A); assay: as above; type: cell-based
Chain of NR1(R755A)/NR2C (Q00961 20-1237, other chains not shown): as above

NR1/NR2A = NR1/NR2A (Rattus norvegicus, UniProt P35439+Q00959); assay: Two electrode voltage clamp recording from Xenopus laevis oocytes; type: cell-based; conditions: relative to maximal glycine (100 μM), 100 μM glutamate
NR1/NR2C(S707N,R710P) = NR1/NR2C(S707N,R710P) (Rattus norvegicus, UniProt P35439+Q00961, R697P/S694N); assay: TEVC recording from Xenopus oocytes, mutant receptor; type: cell-based
Chain of NR1/NR2C(S707N,R710P) (Q00961 20-1237 S694N/R697P, other chains not shown): as the sequence (Q00961 20-1237, other chains not shown) above, with S675N, R678P counted along it

NR1(E781A)/NR2C = NR1(E781A)/NR2C (Rattus norvegicus, UniProt P35439+Q00961, E781A); assay: as above; type: cell-based
Chain of NR1(E781A)/NR2C (Q00961 20-1237, other chains not shown): as the sequence (Q00961 20-1237, other chains not shown) above

NR1/NR2C [5] = target: T1, NR1/NR2C; assay: Least-squares fitting of Scheme 1a to macroscopic currents; type: cell-based
NR1/NR2C(Q800A) = NR1/NR2C(Q800A) (Rattus norvegicus, UniProt P35439+Q00961, Q787A); assay: TEVC recording from Xenopus oocytes, mutant receptor; type: cell-based
Chain of NR1/NR2C(Q800A) (Q00961 20-1237 Q787A, other chains not shown): as the sequence (Q00961 20-1237, other chains not shown) above, with Q768A counted along it

NR1/NR2B = NR1/NR2B (Rattus norvegicus, UniProt P35439+Q00960); assay: Two electrode voltage clamp recording from Xenopus laevis oocytes; type: cell-based; conditions: relative to maximal glycine (100 μM), 100 μM glutamate
Chain of NR1/NR2B (Q00960 27-1482, other chains not shown): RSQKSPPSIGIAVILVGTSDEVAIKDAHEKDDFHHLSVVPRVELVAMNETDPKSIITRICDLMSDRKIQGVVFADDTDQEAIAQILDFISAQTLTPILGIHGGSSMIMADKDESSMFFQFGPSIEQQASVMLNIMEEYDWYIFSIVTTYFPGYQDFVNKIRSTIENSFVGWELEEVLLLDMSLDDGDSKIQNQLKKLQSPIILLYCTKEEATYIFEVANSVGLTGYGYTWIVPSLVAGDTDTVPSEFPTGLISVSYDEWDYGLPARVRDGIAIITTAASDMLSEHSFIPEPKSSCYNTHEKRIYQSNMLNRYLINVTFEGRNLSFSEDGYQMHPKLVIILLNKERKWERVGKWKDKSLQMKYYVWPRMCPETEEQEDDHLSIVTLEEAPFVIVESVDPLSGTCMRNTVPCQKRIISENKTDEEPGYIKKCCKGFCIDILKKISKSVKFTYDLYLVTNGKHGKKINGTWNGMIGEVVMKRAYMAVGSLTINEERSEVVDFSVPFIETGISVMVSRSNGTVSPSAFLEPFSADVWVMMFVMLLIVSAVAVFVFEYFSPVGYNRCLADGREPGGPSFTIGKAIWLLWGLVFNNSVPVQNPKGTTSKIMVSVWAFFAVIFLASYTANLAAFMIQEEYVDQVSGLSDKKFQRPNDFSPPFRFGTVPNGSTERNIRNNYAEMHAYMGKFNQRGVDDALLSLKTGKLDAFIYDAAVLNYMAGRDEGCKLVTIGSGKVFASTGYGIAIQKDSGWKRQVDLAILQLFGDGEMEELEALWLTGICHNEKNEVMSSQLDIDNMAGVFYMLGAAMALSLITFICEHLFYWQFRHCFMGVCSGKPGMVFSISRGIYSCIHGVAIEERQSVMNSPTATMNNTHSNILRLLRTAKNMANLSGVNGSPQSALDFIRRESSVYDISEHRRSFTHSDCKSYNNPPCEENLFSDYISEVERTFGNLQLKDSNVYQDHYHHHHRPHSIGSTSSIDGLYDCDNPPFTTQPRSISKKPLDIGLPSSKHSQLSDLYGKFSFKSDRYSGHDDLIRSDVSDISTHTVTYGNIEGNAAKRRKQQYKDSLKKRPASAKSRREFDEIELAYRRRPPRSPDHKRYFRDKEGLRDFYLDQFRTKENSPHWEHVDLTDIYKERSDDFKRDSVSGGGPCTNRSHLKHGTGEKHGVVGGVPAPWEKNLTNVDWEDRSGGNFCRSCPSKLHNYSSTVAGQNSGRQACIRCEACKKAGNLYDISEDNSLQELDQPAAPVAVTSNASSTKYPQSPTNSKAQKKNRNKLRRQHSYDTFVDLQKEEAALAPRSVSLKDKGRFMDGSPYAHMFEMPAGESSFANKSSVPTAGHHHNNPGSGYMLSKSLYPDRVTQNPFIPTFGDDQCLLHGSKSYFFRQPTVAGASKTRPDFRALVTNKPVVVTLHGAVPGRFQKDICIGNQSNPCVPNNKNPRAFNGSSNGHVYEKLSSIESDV

[6] = ref McBain et al., 1989; cited from earlier work
NR1/NR2D = NR1/NR2D (Rattus norvegicus, UniProt P35439+Q62645); assay: Two electrode voltage clamp recording from Xenopus laevis oocytes; type: cell-based; conditions: relative to maximal glycine (100 μM), 100 μM glutamate
NR1/NR2B(E790Q) = NR1/NR2B(E790Q) (Rattus norvegicus, UniProt P35439+Q00960, E790Q); assay: TEVC recording from Xenopus oocytes, mutant receptor; type: cell-based
NR1(E781A)/NR2B = NR1(E781A)/NR2B (Rattus norvegicus, UniProt P35439+Q00960, E781A); assay: as above; type: cell-based
NR1/NR2C(Q800E) = NR1/NR2C(Q800E) (Rattus norvegicus, UniProt P35439+Q00961, Q787E); assay: as above; type: cell-based
Chain of NR1/NR2C(Q800E) (Q00961 20-1237 Q787E, other chains not shown): as the sequence (Q00961 20-1237, other chains not shown) above, with Q768E counted along it

NR1(R523A)/NR2C = NR1(R523A)/NR2C (Rattus norvegicus, UniProt P35439+Q00961, R523A); assay: as above; type: cell-based
Chain of NR1(R523A)/NR2C (Q00961 20-1237, other chains not shown): as the sequence (Q00961 20-1237, other chains not shown) above

NR1(R523A)/NR2B = NR1(R523A)/NR2B (Rattus norvegicus, UniProt P35439+Q00960, R523A); assay: as above; type: cell-based
Chain of NR1(R523A)/NR2B (Q00960 27-1482, other chains not shown): as the sequence (Q00960 27-1482, other chains not shown) above

NR1/NR2C(R703A) = NR1/NR2C(R703A) (Rattus norvegicus, UniProt P35439+Q00961, R690A); assay: as above; type: cell-based
Chain of NR1/NR2C(R703A) (Q00961 20-1237 R690A, other chains not shown): as the sequence (Q00961 20-1237, other chains not shown) above, with R671A counted along it

NR1(Y692A)/NR2A = NR1(Y692A)/NR2A (Rattus norvegicus, UniProt P35439+Q00959, Y692A); assay: as above; type: cell-based
NR1/NR2B(R693A) = NR1/NR2B(R693A) (Rattus norvegicus, UniProt P35439+Q00960, R693A); assay: as above; type: cell-based
[7] = Table 2, Scheme I (Monte Carlo simulation of gating model)
[8] = this particular patch (Figure 8B), MIL fit Scheme 1
[9] = 1 s concentration jump from DCS into glutamate plus DCS
[10] = 1 mM agonist + 1 mM glutamate, 0.5 mM Ca2+
[11] = 1 mM agonist + 1 mM glutamate, 0.5 mM Ca2+, reversal potential assumed 0 mV
[12] = Figure 7B, paired recordings glycine vs DCS
[13] = average of 6 individually fitted patches
[14] = composite open time histogram from 6 patches
[15] = composite shut time histogram from 6 patches
[16] = representative recording from one patch (Figure 8B)

EC50 (NR1/NR2C [1]; read-out: EC50 for glutamate): 420 ± 40 nM
Compound: N[C@@H](CCC(=O)O)C(=O)O [glutamate]

Compound: N[C@@H]1CON=C1O [DCS, D-cycloserine]
d1+ (NR1/NR2C [2]; MIL fit Scheme 1, six patches): 1.2 ± 0.4 s⁻¹
d1− (NR1/NR2C [2]; MIL fit Scheme 1, six patches): 4.2 ± 1.0 s⁻¹
d2+ (NR1/NR2C [2]; MIL fit Scheme 1, six patches): 25 ± 8 s⁻¹
d2− (NR1/NR2C [2]; MIL fit Scheme 1, six patches): 38 ± 7 s⁻¹
k1+ (NR1/NR2C [2]; MIL fit Scheme 1, six patches): 420 ± 80 s⁻¹
k1− (NR1/NR2C [2]; MIL fit Scheme 1, six patches): 1270 ± 340 s⁻¹
k2+ (forward rate of the fast gating step) (NR1/NR2C [2]; MIL fit Scheme 1, six patches): 1395 ± 215 s^−1 and 1395± 215 ^* s^−1
k2− (NR1/NR2C [2]; MIL fit Scheme 1, six patches): 17510 ± 2135 s⁻¹
k3+ (NR1/NR2C [2]; MIL fit Scheme 1, six patches): 4795 ± 815 s⁻¹
k3− (closing rate) (NR1/NR2C [2]; MIL fit Scheme 1, six patches): 2150 ± 210 s^−1 and 2150 ± 210 ^* s^−1
k4+ (NR1/NR2C [2]; MIL fit Scheme 1, six patches): 75 ± 35 s⁻¹
k4− (NR1/NR2C [2]; MIL fit Scheme 1, six patches): 1070 ± 130 s⁻¹
MOT (mean open time) (NR1/NR2C [2]; [7]): 0.61 ms
Po (NR1/NR2C [2]; [7]): 0.029
LL/event (log likelihood per event) (NR1/NR2C [2]; goodness of MIL fit of Scheme 1): 4.86 ± 0.05
rate constant k2+ (NR1/NR2C [2]; [8]): 2150 s⁻¹
rate constant k3− (NR1/NR2C [2]; [8]): 2388 s⁻¹
DCS Efficacy (% glycine) (NR1(Y692A)/NR2D): 75 ± 1 % glycine
Rise time (NR1/NR2C [3]; [9]): 3.8 ± 0.7 ms
glutamate deactivation time course (NR1/NR2C [3]; [9]): 242 ± 50 ms
Deactivation (NR1/NR2C [3]; Table 3, Experimental): 130 to 160 ms
Desensitization (τ1) (NR1/NR2C [3]; Table 3, Experimental): 32 ms
Desensitization (τ2) (NR1/NR2C [3]; Table 3, Experimental): 540 ms
Rise time (NR1/NR2C [3]; Table 3, Experimental): 3.1 to 4.9 ms
DCS Efficacy (% glycine) (NR1(Y692A)/NR2C): 59 ± 2 % glycine
DCS Efficacy (% glycine) (NR1/NR2D(E791Q)): 110 ± 1 % glycine
area of larger conductance level (NR1/NR2C [4]; [10]): 72 ± 8%
area of smaller conductance level (NR1/NR2C [4]; [10]): 28 ± 5%
conductance level (larger) (NR1/NR2C [4]; [11]): 45 ± 5 pS
conductance level (smaller) (NR1/NR2C [4]; [11]): 28 ± 3 pS
mean duration of all open periods (NR1/NR2C [4]; 1 mM agonist + 1 mM glutamate, 6 one-channel patches): 0.61 ± 0.06 ms
open probability (Po) (NR1/NR2C [4]; 1 mM agonist + 1 mM glutamate, patches with a single active channel): 0.029 ± 0.006
mean open time, % of control (glycine) (NR1/NR2C [4]; DCS vs glycine, paired patches): 132%
open probability, % of control (glycine) (NR1/NR2C [4]; DCS vs glycine, paired patches): 163%
mean open time increased by, in the presence of DCS (NR1/NR2C [4]; [12]): 131 ± 4%
open probability increased by, in the presence of DCS (NR1/NR2C [4]; [12]): 194 ± 33%
MOT (mean open time) (NR1/NR2C [4]; Table 2, Experimental): 0.57 ms
Steady state Po (NR1/NR2C [4]; Table 3, Experimental): 0.028
area of shut τ2 (NR1/NR2C [4]; [13]): 10%
area of shut τ3 (NR1/NR2C [4]; [13]): 30%
area of shut τ4 (NR1/NR2C [4]; [13]): 36%
area of shut τ5 (NR1/NR2C [4]; [13]): 5%
shut time constant τ1 (NR1/NR2C [4]; [13]): 0.04 ± 0.005 ms
shut time constant τ2 (NR1/NR2C [4]; [13]): 0.55 ± 0.16 ms
shut time constant τ3 (NR1/NR2C [4]; [13]): 8.5 ± 1.2 ms
shut time constant τ4 (NR1/NR2C [4]; [13]): 34 ± 4 ms
shut time constant τ5 (NR1/NR2C [4]; [13]): 220 ± 79 ms
area of open time τ1 (NR1/NR2C [4]; [14]): 49%
area of open time τ2 (NR1/NR2C [4]; [14]): 51%
open time constant τ1 (NR1/NR2C [4]; [14]): 0.32 ms
open time constant τ2 (NR1/NR2C [4]; [14]): 0.76 ms
area of shut τ2 (NR1/NR2C [4]; [15]): 10%
area of shut τ3 (NR1/NR2C [4]; [15]): 36%
area of shut τ4 (NR1/NR2C [4]; [15]): 32%
area of shut τ5 (NR1/NR2C [4]; [15]): 3%
shut time constant τ1 (NR1/NR2C [4]; [15]): 0.037 ms
shut time constant τ2 (NR1/NR2C [4]; [15]): 0.48 ms
shut time constant τ3 (NR1/NR2C [4]; [15]): 9.5 ms
shut time constant τ4 (NR1/NR2C [4]; [15]): 36 ms
shut time constant τ5 (NR1/NR2C [4]; [15]): 248 ms
apparent mean open time (NR1/NR2C [4]; [16]): 0.52 ms
open probability (NR1/NR2C [4]; [16]): 0.026
DCS Efficacy (% glycine) (NR1/NR2C [1]; NR1/NR2C, relative to maximal glycine (100 μM), 100 μM glutamate): 190 ± 6 % glycine and 190 % glycine
DCS Efficacy (% glycine) (NR1/NR2A(E798Q)): 90 ± 2 % glycine
DCS Efficacy (% glycine) (NR1/NR2B(E790A)): 68 ± 3 % glycine
DCS Efficacy (% glycine) (NR1(Y692A)/NR2B): 46 ± 1 % glycine
DCS Efficacy (% glycine) (NR1(R755A)/NR2C): 100 % glycine and 100 ± 5 % glycine
DCS Efficacy (% glycine) (NR1/NR2A): 90 ± 2 % glycine
DCS Efficacy (% glycine) (NR1/NR2C(S707N,R710P)): 190 ± 7 % glycine
DCS Efficacy (% glycine) (NR1(E781A)/NR2C): 150 ± 10 % glycine
Deactivation (NR1/NR2C [5]; Scheme Ia): 245 ms
Desensitization (τ1) (NR1/NR2C [5]; Scheme Ia): 15 ms
Desensitization (τ2) (NR1/NR2C [5]; Scheme Ia): 130 ms
Peak Po (NR1/NR2C [5]; Scheme Ia): 0.042
Rise time (NR1/NR2C [5]; Scheme Ia): 2.4 ms
Steady state Po (NR1/NR2C [5]; Scheme Ia): 0.030
Residual (normalized residual sum of squares) (NR1/NR2C [5]; Scheme Ia macroscopic fit): 2.67 × 10^−3
d1+ (NR1/NR2C [5]; Scheme Ia macroscopic fit): 1.4 s⁻¹
d1− (NR1/NR2C [5]; Scheme Ia macroscopic fit): 5.7 s⁻¹
d2+ (NR1/NR2C [5]; Scheme Ia macroscopic fit): 6.7 s⁻¹
d2− (NR1/NR2C [5]; Scheme Ia macroscopic fit): 16 s⁻¹
b+ (agonist binding rate) (NR1/NR2C [5]; glutamate binding step, Scheme Ia, with the labelled NR1 agonist): 560000 M⁻¹ s⁻¹
b− (unbinding rate) (NR1/NR2C [5]; glutamate unbinding step, Scheme Ia, with the labelled NR1 agonist): 3.4 s⁻¹
DCS Efficacy (% glycine) (NR1/NR2C(Q800A)): 191 ± 7 % glycine
DCS Efficacy (% glycine) (NR1/NR2B): 65 ± 2 % glycine
pKa for exocyclic amine [6]: 7.5
pKa for the exocyclic oxygen [6]: 4.5
DCS Efficacy (% glycine) (NR1/NR2D): 94 ± 2 % glycine
DCS Efficacy (% glycine) (NR1/NR2B(E790Q)): 78 ± 1 % glycine
DCS Efficacy (% glycine) (NR1(E781A)/NR2B): 10 ± 1 % glycine
DCS Efficacy (% glycine) (NR1/NR2C(Q800E)): 130 ± 4 % glycine
DCS Efficacy (% glycine) (NR1(R523A)/NR2C): 254±20 % glycine
DCS Efficacy (% glycine) (NR1(R523A)/NR2B): 31±2 % glycine
DCS Efficacy (% glycine) (NR1/NR2C(R703A)): 190 ± 4 % glycine
DCS Efficacy (% glycine) (NR1(Y692A)/NR2A): 77 ± 1 % glycine
DCS Efficacy (% glycine) (NR1/NR2B(R693A)): 68 ± 3 % glycine
